This note sets out measurements from patent US6809065B2, “Herbicide containing substituted pyrazole derivative as active ingredient” (SDS Biotech K.K., priority 2001, dated 2004).

The subject of data set [1] is wheat (Triticum aestivum). Nature of the data set: Upland field foliage treatment (Test Example 1), crop. The format is in vivo. Conditions: foliage treatment 14th day after sowing, 1 kg active ingredient per hectare, evaluated 21st day, lower index = higher safety. The method in brief: (§1)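 Weeds and crops were sown in upland soil under about 1 cm cover, and a wettable powder diluted in water was sprayed on the foliage 14 days after sowing at 1 kg active ingredient per hectare. Scoring was done 21 days after application on an index scale, where higher weed scores mean stronger herbicidal effect and lower crop scores mean greater crop safety.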

The subject of data set [2] is soybean (Glycine max). The data set is described as above. The format is in vivo. Particulars: foliage treatment 14th day after sowing, 1 kg active ingredient per hectare, evaluated 21st day, lower index = higher safety. The method in brief: as §1
For data set [3], the system named is wheat (Triticum aestivum). Nature of the data set: Upland soil treatment (Test Example 2), crop. Conditions: soil surface treatment next day after sowing, 1 kg active ingredient per hectare, evaluated 21st day, lower index = higher safety. Type of data set: in vivo. The method in brief: (§2)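 Pre-emergence soil treatment: day after sowing, WP formulation diluted in water, applied uniformly to soil surface at 1 kg a.i./ha. Seeds sown ~1 cm deep in upland soil. Visual index read 21 d after application (weeds: high = effective; crop: low = safe).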

Data set [4] deals with soybean (Glycine max). Nature of the data set: Upland soil treatment (Test Example 2), crop. The format is in vivo. Particulars: soil surface treatment next day after sowing, 1 kg active ingredient per hectare, evaluated 21st day, lower index = higher safety. The method in brief:
as §2

The subject of another data set is Echinochloa spp. The data set is described as follows: Paddy field treatment (Test Example 3). The format is in vivo, Echinochloa crusgalli. Conditions: paddy pot, submerged 4 cm, dropped on water surface 10th day after transplantation, 1 kg active ingredient per hectare, evaluated 21st day. The method in brief: (§3)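 Weeds sown in puddled paddy soil under 4 cm water, with two-leaf Koshihikari rice transplanted at 3 cm depth. On day 10 after transplanting, wettable powder applied to the water surface at 1 kg active ingredient per hectare. Herbicidal effect and crop safety scored on an index 21 days later.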

The test system of data set [5] is rice (Oryza sative, variety: Koshihikari). Nature of the data set: Paddy field treatment (Test Example 3), crop. Conditions: transplanted rice two-leaf period, water surface treatment 10th day after transplantation, 1 kg active ingredient per hectare, evaluated 21st day, lower index = higher safety. The format is in vivo, Oryza sativa. The method in brief: as §3
The subject of data set [6] is Stellaria media. Nature of the data set: Upland field foliage treatment (Test Example 1). Type of data set: in vivo. Conditions: foliage treatment 14th day after sowing, wettable powder, 1 kg active ingredient per hectare, evaluated 21st day after application. The method in brief:
as §1

Data set [7] relates to Setaria viridis. Nature of the data set: Upland field foliage treatment (Test Example 1). The format is in vivo. Conditions: foliage treatment 14th day after sowing, wettable powder, 1 kg active ingredient per hectare, evaluated 21st day after application. The method in brief: as §1
For data set [8], the system named is Chenopodium album. The data set is described as follows: Upland field foliage treatment (Test Example 1). Particulars: foliage treatment 14th day after sowing, wettable powder, 1 kg active ingredient per hectare, evaluated 21st day after application. The format is in vivo. The method in brief:
as §1

Data set [9] relates to Digitaria adscendens. Nature of the data set: Upland field foliage treatment (Test Example 1). The format is in vivo. Conditions: foliage treatment 14th day after sowing, wettable powder, 1 kg active ingredient per hectare, evaluated 21st day after application. The method in brief: as §1
Data set [10] has as its system Stellaria media. Nature of the data set: Upland soil treatment (Test Example 2). Type of data set: in vivo. Conditions: soil surface treatment next day after sowing, wettable powder, 1 kg active ingredient per hectare, evaluated 21st day after application. The method in brief: as §2
The subject of data set [11] is Setaria viridis. Nature of the data set: Upland soil treatment (Test Example 2). The format is in vivo. Particulars: soil surface treatment next day after sowing, wettable powder, 1 kg active ingredient per hectare, evaluated 21st day after application. The method in brief: as §2
The test system of data set [12] is Chenopodium album. Nature of the data set: Upland soil treatment (Test Example 2). Type of data set: in vivo. Particulars: soil surface treatment next day after sowing, wettable powder, 1 kg active ingredient per hectare, evaluated 21st day after application. The method in brief: as §2
For data set [13], the system named is Digitaria adscendens. Nature of the data set: Upland soil treatment (Test Example 2). Particulars: soil surface treatment next day after sowing, wettable powder, 1 kg active ingredient per hectare, evaluated 21st day after application. Type of data set: in vivo. The method in brief: as §2
The test system of the next data set is Monochoria vaginalis. The data set is described as follows: Paddy field treatment (Test Example 3). Particulars: paddy pot, submerged 4 cm, dropped on water surface 10th day after transplantation, 1 kg active ingredient per hectare, evaluated 21st day. The format is in vivo. The method in brief: as §3
In another data set the test system is Scirpus juncoides. The data set is described as follows: Paddy field treatment (Test Example 3). Type of data set: in vivo. Particulars: paddy pot, submerged 4 cm, dropped on water surface 10th day after transplantation, 1 kg active ingredient per hectare, evaluated 21st day. The method in brief: as §3
Another data set deals with Ammannia multiflora. Nature of the data set: Paddy field treatment (Test Example 3). Type of data set: in vivo. Particulars: paddy pot, submerged 4 cm, dropped on water surface 10th day after transplantation, 1 kg active ingredient per hectare, evaluated 21st day. The method in brief: as §3

Structures are written as SMILES.

Consider `COC=C(Cn1nc(-c2cccc(Cl)c2Cl)c(Cl)c1C)C(=O)OC` [Compound 20], for which the “Herbicidal activity Triticum aestivum” value was 0 (herbicidal effect of not less than 0% by weight and less than 10% by weight) in data set [1]; 0 (herbicidal effect of not less than 0% by weight and less than 10% by weight) in data set [3]. The “Herbicidal activity Glycine max” value with soybean (Glycine max) [2] is 0 (herbicidal effect of not less than 0% by weight and less than 10% by weight); in the data set on soybean (Glycine max) [4] it was 0 (herbicidal effect of not less than 0% by weight and less than 10% by weight). For the same molecule, the “Herbicidal activity Echinochloa spp.” value with Echinochloa spp. was 4 (herbicidal effect of not less than 70% by weight and less than 90% by weight). Moreover, the “Herbicidal activity Oryza sativa” value in data set [5] is 0 (herbicidal effect of not less than 0% by weight and less than 10% by weight). For the same molecule, the “Herbicidal activity Stellaria media” value with Stellaria media [6] was 5 (herbicidal effect of not less than 90% by weight); in the data set on Stellaria media [10], 4 (herbicidal effect of not less than 70% by weight and less than 90% by weight). Moreover, the “Herbicidal activity Setaria viridis” value was 4 (herbicidal effect of not less than 70% by weight and less than 90% by weight) in the data set with Setaria viridis [7]; 4 (herbicidal effect of not less than 70% by weight and less than 90% by weight) in the data set with Setaria viridis [11]. Besides, the “Herbicidal activity Chenopodium album” value in the data set with Chenopodium album [8] and in the data set on Chenopodium album [12] was 5 (herbicidal effect of not less than 90% by weight) in each case. For the same molecule, the “Herbicidal activity Digitaria adscendens” value is 4 (herbicidal effect of not less than 70% by weight and less than 90% by weight) in the data set on Digitaria adscendens [9]; 4 (herbicidal effect of not less than 70% by weight and less than 90% by weight) in the data set with Digitaria adscendens [13]. In the data set with Monochoria vaginalis, the “Herbicidal activity Monochoria vaginalis” value is 5 (herbicidal effect of not less than 90% by weight). In addition, the “Herbicidal activity Scirpus juncoides” value in the data set with Scirpus juncoides was 4 (herbicidal effect of not less than 70% by weight and less than 90% by weight). For the same molecule, in the data set with Ammannia multiflora, the “Herbicidal activity Ammannia multiflora” value is given as 5 (herbicidal effect of not less than 90% by weight).
For the molecule `COC=C(Cn1nc(-c2cc(C)ccc2C)c(Br)c1C)C(=O)OC` [Compound 28], the “Herbicidal activity Triticum aestivum” value in [1] was 0 (herbicidal effect of not less than 0% by weight and less than 10% by weight); in [3] it was 0 (herbicidal effect of not less than 0% by weight and less than 10% by weight). Besides, the “Herbicidal activity Glycine max” value in the data set on soybean (Glycine max) [2] is 0 (herbicidal effect of not less than 0% by weight and less than 10% by weight); with soybean (Glycine max) [4], 0 (herbicidal effect of not less than 0% by weight and less than 10% by weight). The “Herbicidal activity Echinochloa spp.” value in the data set on Echinochloa spp. is reported as 5 (herbicidal effect of not less than 90% by weight). In data set [5], the “Herbicidal activity Oryza sativa” value is 1 (herbicidal effect of not less than 10% by weight and less than 30% by weight). In addition, the “Herbicidal activity Stellaria media” value in the data set with Stellaria media [6] was 5 (herbicidal effect of not less than 90% by weight); in the data set on Stellaria media [10] it was 4 (herbicidal effect of not less than 70% by weight and less than 90% by weight). The “Herbicidal activity Setaria viridis” value in the data set on Setaria viridis [7] is 4 (herbicidal effect of not less than 70% by weight and less than 90% by weight); in the data set on Setaria viridis [11] it was 4 (herbicidal effect of not less than 70% by weight and less than 90% by weight). Further, the “Herbicidal activity Chenopodium album” value in the data set with Chenopodium album [8] was 5 (herbicidal effect of not less than 90% by weight); in the data set with Chenopodium album [12], 4 (herbicidal effect of not less than 70% by weight and less than 90% by weight). The “Herbicidal activity Digitaria adscendens” value in the data set with Digitaria adscendens [9] was 4 (herbicidal effect of not less than 70% by weight and less than 90% by weight); in the data set with Digitaria adscendens [13] it was 4 (herbicidal effect of not less than 70% by weight and less than 90% by weight). Also, the “Herbicidal activity Monochoria vaginalis” value in the data set with Monochoria vaginalis was 5 (herbicidal effect of not less than 90% by weight). For the same molecule, the “Herbicidal activity Scirpus juncoides” value with Scirpus juncoides was 5 (herbicidal effect of not less than 90% by weight). For the same molecule, in the data set with Ammannia multiflora, the “Herbicidal activity Ammannia multiflora” value is 5 (herbicidal effect of not less than 90% by weight).
Turning to `COC=C(Cn1nc(-c2ccccc2Cl)cc1C)C(=O)OC` [Compound 4], the “Herbicidal activity Triticum aestivum” value in [1] was 0 (herbicidal effect of not less than 0% by weight and less than 10% by weight); in data set [3] it was 0 (herbicidal effect of not less than 0% by weight and less than 10% by weight). Besides, the “Herbicidal activity Glycine max” value with soybean (Glycine max) [2] is 0 (herbicidal effect of not less than 0% by weight and less than 10% by weight); in the data set with soybean (Glycine max) [4], 0 (herbicidal effect of not less than 0% by weight and less than 10% by weight). In the data set with Echinochloa spp., the “Herbicidal activity Echinochloa spp.” value was 4 (herbicidal effect of not less than 70% by weight and less than 90% by weight). Further, in data set [5], the “Herbicidal activity Oryza sativa” value is 0 (herbicidal effect of not less than 0% by weight and less than 10% by weight). Further, the “Herbicidal activity Stellaria media” value with Stellaria media [6] was 4 (herbicidal effect of not less than 70% by weight and less than 90% by weight); in the data set on Stellaria media [10], 4 (herbicidal effect of not less than 70% by weight and less than 90% by weight). For the same molecule, the “Herbicidal activity Setaria viridis” value in the data set with Setaria viridis [7] is 4 (herbicidal effect of not less than 70% by weight and less than 90% by weight); with Setaria viridis [11] it was 4 (herbicidal effect of not less than 70% by weight and less than 90% by weight). Besides, the “Herbicidal activity Chenopodium album” value with Chenopodium album [8] is 5 (herbicidal effect of not less than 90% by weight); in the data set with Chenopodium album [12], 4 (herbicidal effect of not less than 70% by weight and less than 90% by weight). For the same molecule, the “Herbicidal activity Digitaria adscendens” value in the data set with Digitaria adscendens [9] was 4 (herbicidal effect of not less than 70% by weight and less than 90% by weight); with Digitaria adscendens [13], 4 (herbicidal effect of not less than 70% by weight and less than 90% by weight). Also, the “Herbicidal activity Monochoria vaginalis” value with Monochoria vaginalis is reported as 5 (herbicidal effect of not less than 90% by weight). In addition, the “Herbicidal activity Scirpus juncoides” value in the data set with Scirpus juncoides was 4 (herbicidal effect of not less than 70% by weight and less than 90% by weight). Moreover, in the data set on Ammannia multiflora, the “Herbicidal activity Ammannia multiflora” value was 3 (herbicidal effect of not less than 50% by weight and less than 70% by weight).
`CCc1cc(-c2ccccc2)nn1CC(=COC)C(=O)OC` [Compound 36]: the “Herbicidal activity Triticum aestivum” value was 1 (herbicidal effect of not less than 10% by weight and less than 30% by weight) in data set [1]; 0 (herbicidal effect of not less than 0% by weight and less than 10% by weight) in data set [3]. In addition, the “Herbicidal activity Glycine max” value was 1 (herbicidal effect of not less than 10% by weight and less than 30% by weight) with soybean (Glycine max) [2]; 0 (herbicidal effect of not less than 0% by weight and less than 10% by weight) in the data set on soybean (Glycine max) [4]. Moreover, in the data set with Echinochloa spp., the “Herbicidal activity Echinochloa spp.” value was 3 (herbicidal effect of not less than 50% by weight and less than 70% by weight). The “Herbicidal activity Oryza sativa” value in [5] is 0 (herbicidal effect of not less than 0% by weight and less than 10% by weight). Further, the “Herbicidal activity Stellaria media” value in the data set on Stellaria media [6] is 5 (herbicidal effect of not less than 90% by weight); with Stellaria media [10], 4 (herbicidal effect of not less than 70% by weight and less than 90% by weight). The “Herbicidal activity Setaria viridis” value in the data set on Setaria viridis [7] was 5 (herbicidal effect of not less than 90% by weight); in the data set with Setaria viridis [11], 4 (herbicidal effect of not less than 70% by weight and less than 90% by weight). Further, the “Herbicidal activity Chenopodium album” value in the data set on Chenopodium album [8] was 5 (herbicidal effect of not less than 90% by weight); in the data set on Chenopodium album [12], 4 (herbicidal effect of not less than 70% by weight and less than 90% by weight). Further, the “Herbicidal activity Digitaria adscendens” value was 4 (herbicidal effect of not less than 70% by weight and less than 90% by weight) in the data set on Digitaria adscendens [9]; 4 (herbicidal effect of not less than 70% by weight and less than 90% by weight) in the data set on Digitaria adscendens [13]. Besides, in the data set with Monochoria vaginalis, the “Herbicidal activity Monochoria vaginalis” value is 3 (herbicidal effect of not less than 50% by weight and less than 70% by weight). The “Herbicidal activity Scirpus juncoides” value with Scirpus juncoides was 3 (herbicidal effect of not less than 50% by weight and less than 70% by weight). Further, in the data set on Ammannia multiflora, the “Herbicidal activity Ammannia multiflora” value is 3 (herbicidal effect of not less than 50% by weight and less than 70% by weight).
